{"source": "patent US9963445B2", "about": "“Chemical compounds” (SYNGENTA PARTICIPATIONS AG, priority 2013, dated 2018)", "type_in_all_cases": "in vivo", "key": {"[1]": {"tested_on": "Alopecurus myosuroides", "experiment": "Pre-emergence herbicidal activity, glasshouse pot test", "conditions": "pre-emergence spray, rate 1000 g/ha, evaluated after 13 days, scale 0-5", "outline": "(§1)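 Damage was rated at 13 days from 0 (none) to 5 (total), in a glasshouse kept at 24/16 °C, 14 h light and 65% humidity with watering twice daily. The aqueous spray of active ingredient in 50:50 acetone/water plus 0.5% Tween 20 was applied to soil one day post-sowing, before emergence.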"}, "[2]": {"tested_on": "zea mays", "experiment": "Pre-emergence herbicidal activity, glasshouse pot test", "conditions": "pre-emergence spray, rate 1000 g/ha, evaluated after 13 days, scale 0-5", "outline": "as §1"}, "[3]": {"tested_on": "Amaranthus retroflexus", "experiment": "Pre-emergence herbicidal activity, glasshouse pot test", "conditions": "pre-emergence spray, rate 1000 g/ha, evaluated after 13 days, scale 0-5", "outline": "as §1"}, "[4]": {"tested_on": "Echinochloa crus-galli", "experiment": "Pre-emergence herbicidal activity, glasshouse pot test", "conditions": "pre-emergence spray, rate 1000 g/ha, evaluated after 13 days, scale 0-5", "outline": "as §1"}, "[5]": {"tested_on": "Abutilon theophrasti", "experiment": "Pre-emergence herbicidal activity, glasshouse pot test", "conditions": "pre-emergence spray, rate 1000 g/ha, evaluated after 13 days, scale 0-5", "outline": "as §1"}, "[6]": {"tested_on": "Setaria faberi", "experiment": "Pre-emergence herbicidal activity, glasshouse pot test", "conditions": "pre-emergence spray, rate 1000 g/ha, evaluated after 13 days, scale 0-5", "outline": "as §1"}, "[7]": {"tested_on": "Alopecurus myosuroides", "experiment": "Post-emergence herbicidal activity, glasshouse pot test", "parameters": "key: 0 = no damage to plant, 5 = total damage to plant", "conditions": "Application post-emergence, rate 1000 g/ha, evaluated after 13 days", "outline": "(§2)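 Pot-grown seedlings, sown in standard soil, were sprayed 8 days after sowing and kept in a controlled glasshouse (24/16 °C, 14 h photoperiod, 65% humidity). Injury was assessed visually 13 days later on a scale where 5 means total damage.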"}, "[8]": {"tested_on": "zea mays", "experiment": "Post-emergence herbicidal activity, glasshouse pot test", "parameters": "key: 0 = no damage to plant, 5 = total damage to plant", "conditions": "Application post-emergence, rate 1000 g/ha, evaluated after 13 days", "outline": "as §2"}, "[9]": {"tested_on": "Amaranthus retroflexus", "experiment": "Post-emergence herbicidal activity, glasshouse pot test", "parameters": "key: 0 = no damage to plant, 5 = total damage to plant", "conditions": "Application post-emergence, rate 1000 g/ha, evaluated after 13 days", "outline": "as §2"}, "[10]": {"tested_on": "Echinochloa crus-galli", "experiment": "Post-emergence herbicidal activity, glasshouse pot test", "parameters": "key: 0 = no damage to plant, 5 = total damage to plant", "conditions": "Application post-emergence, rate 1000 g/ha, evaluated after 13 days", "outline": "as §2"}, "[11]": {"tested_on": "Abutilon theophrasti", "experiment": "Post-emergence herbicidal activity, glasshouse pot test", "parameters": "key: 0 = no damage to plant, 5 = total damage to plant", "conditions": "Application post-emergence, rate 1000 g/ha, evaluated after 13 days", "outline": "as §2"}, "[12]": {"tested_on": "Setaria faberi", "experiment": "Post-emergence herbicidal activity, glasshouse pot test", "parameters": "key: 0 = no damage to plant, 5 = total damage to plant", "conditions": "Application post-emergence, rate 1000 g/ha, evaluated after 13 days", "outline": "as §2"}}}
{"smiles": "CC1=C(Br)C(=O)N(c2cc(C(F)(F)F)ccn2)C1O", "note": "(stereo not drawn) [AG1]", "values": [{"measurement": "ALOMY damage score, application pre-emergence", "setting": "[1]", "result": 2}, {"measurement": "ZEAMX damage score, application pre-emergence", "setting": "[2]", "result": 0}, {"measurement": "AMARE damage score, application pre-emergence", "setting": "[3]", "result": 5}, {"measurement": "ECHCG damage score, application pre-emergence", "setting": "[4]", "result": 2}, {"measurement": "ABUTH damage score, application pre-emergence", "setting": "[5]", "result": 5}, {"measurement": "SETFA damage score, application pre-emergence", "setting": "[6]", "result": 3}, {"measurement": "ALOMY herbicidal damage score", "setting": "[7]", "result": 4}, {"measurement": "ZEAMX herbicidal damage score", "setting": "[8]", "result": 2}, {"measurement": "AMARE herbicidal damage score", "setting": "[9]", "result": 5}, {"measurement": "ECHCG herbicidal damage score", "setting": "[10]", "result": 5}, {"measurement": "ABUTH herbicidal damage score", "setting": "[11]", "result": 5}, {"measurement": "SETFA herbicidal damage score", "setting": "[12]", "result": 5}]}
{"smiles": "COC1=C(C)C(O)N(c2cc(C(F)(F)F)ccn2)C1=O", "note": "(stereo not drawn) [AI1, 2-hydroxy-4-methoxy-3-methyl-1-[4-(trifluoromethyl)-2-pyridyl]-2H-pyrrol-5-one]", "values": [{"measurement": "ALOMY damage score, application pre-emergence", "setting": "[1]", "result": 4}, {"measurement": "ZEAMX damage score, application pre-emergence", "setting": "[2]", "result": 3}, {"measurement": "AMARE damage score, application pre-emergence", "setting": "[3]", "result": 5}, {"measurement": "ECHCG damage score, application pre-emergence", "setting": "[4]", "result": 4}, {"measurement": "ABUTH damage score, application pre-emergence", "setting": "[5]", "result": 5}, {"measurement": "SETFA damage score, application pre-emergence", "setting": "[6]", "result": 5}, {"measurement": "ALOMY herbicidal damage score", "setting": "[7]", "result": 4}, {"measurement": "ZEAMX herbicidal damage score", "setting": "[8]", "result": 4}, {"measurement": "AMARE herbicidal damage score", "setting": "[9]", "result": 5}, {"measurement": "ECHCG herbicidal damage score", "setting": "[10]", "result": 5}, {"measurement": "ABUTH herbicidal damage score", "setting": "[11]", "result": 5}, {"measurement": "SETFA herbicidal damage score", "setting": "[12]", "result": 5}]}
{"smiles": "COC1=C(C)C(O)N(c2cc(C(F)(F)F)c(Br)cn2)C1=O", "note": "(stereo not drawn) [AI2]", "values": [{"measurement": "ALOMY damage score, application pre-emergence", "setting": "[1]", "result": 4}, {"measurement": "ZEAMX damage score, application pre-emergence", "setting": "[2]", "result": 2}, {"measurement": "AMARE damage score, application pre-emergence", "setting": "[3]", "result": 5}, {"measurement": "ECHCG damage score, application pre-emergence", "setting": "[4]", "result": 4}, {"measurement": "ABUTH damage score, application pre-emergence", "setting": "[5]", "result": 3}, {"measurement": "SETFA damage score, application pre-emergence", "setting": "[6]", "result": 1}, {"measurement": "ALOMY herbicidal damage score", "setting": "[7]", "result": 5}, {"measurement": "ZEAMX herbicidal damage score", "setting": "[8]", "result": 4}, {"measurement": "AMARE herbicidal damage score", "setting": "[9]", "result": 5}, {"measurement": "ECHCG herbicidal damage score", "setting": "[10]", "result": 5}, {"measurement": "ABUTH herbicidal damage score", "setting": "[11]", "result": 5}, {"measurement": "SETFA herbicidal damage score", "setting": "[12]", "result": 5}]}
{"smiles": "COC1=C(C)C(O)N(c2cc(OC(F)(F)F)ccn2)C1=O", "note": "(stereo not drawn) [AI3]", "values": [{"measurement": "ALOMY damage score, application pre-emergence", "setting": "[1]", "result": 3}, {"measurement": "ZEAMX damage score, application pre-emergence", "setting": "[2]", "result": 2}, {"measurement": "AMARE damage score, application pre-emergence", "setting": "[3]", "result": 5}, {"measurement": "ECHCG damage score, application pre-emergence", "setting": "[4]", "result": 4}, {"measurement": "ABUTH damage score, application pre-emergence", "setting": "[5]", "result": 4}, {"measurement": "SETFA damage score, application pre-emergence", "setting": "[6]", "result": 4}, {"measurement": "ALOMY herbicidal damage score", "setting": "[7]", "result": 5}, {"measurement": "ZEAMX herbicidal damage score", "setting": "[8]", "result": 1}, {"measurement": "AMARE herbicidal damage score", "setting": "[9]", "result": 4}, {"measurement": "ECHCG herbicidal damage score", "setting": "[10]", "result": 5}, {"measurement": "ABUTH herbicidal damage score", "setting": "[11]", "result": 4}, {"measurement": "SETFA herbicidal damage score", "setting": "[12]", "result": 5}]}
{"smiles": "COC1=C(C)C(O)N(c2cc(C(C)(C)C)ccn2)C1=O", "note": "(stereo not drawn) [AI4]", "values": [{"measurement": "ALOMY damage score, application pre-emergence", "setting": "[1]", "result": 3}, {"measurement": "ZEAMX damage score, application pre-emergence", "setting": "[2]", "result": 1}, {"measurement": "AMARE damage score, application pre-emergence", "setting": "[3]", "result": 5}, {"measurement": "ECHCG damage score, application pre-emergence", "setting": "[4]", "result": 4}, {"measurement": "ABUTH damage score, application pre-emergence", "setting": "[5]", "result": 4}, {"measurement": "SETFA damage score, application pre-emergence", "setting": "[6]", "result": 5}, {"measurement": "ALOMY herbicidal damage score", "setting": "[7]", "result": 5}, {"measurement": "ZEAMX herbicidal damage score", "setting": "[8]", "result": 3}, {"measurement": "AMARE herbicidal damage score", "setting": "[9]", "result": 5}, {"measurement": "ECHCG herbicidal damage score", "setting": "[10]", "result": 5}, {"measurement": "ABUTH herbicidal damage score", "setting": "[11]", "result": 5}, {"measurement": "SETFA herbicidal damage score", "setting": "[12]", "result": 5}]}
{"smiles": "CCOC1=C(C)C(O)N(c2cc(C(F)(F)F)ccn2)C1=O", "note": "(stereo not drawn) [AI5, 4-ethoxy-2-hydroxy-3-methyl-1-[4-(trifluoromethyl)-2-pyridyl]-2H-pyrrol-5-one]", "values": [{"measurement": "ALOMY damage score, application pre-emergence", "setting": "[1]", "result": 4}, {"measurement": "ZEAMX damage score, application pre-emergence", "setting": "[2]", "result": 3}, {"measurement": "AMARE damage score, application pre-emergence", "setting": "[3]", "result": 5}, {"measurement": "ECHCG damage score, application pre-emergence", "setting": "[4]", "result": 4}, {"measurement": "ABUTH damage score, application pre-emergence", "setting": "[5]", "result": 4}, {"measurement": "SETFA damage score, application pre-emergence", "setting": "[6]", "result": 5}, {"measurement": "ALOMY herbicidal damage score", "setting": "[7]", "result": 4}, {"measurement": "ZEAMX herbicidal damage score", "setting": "[8]", "result": 3}, {"measurement": "AMARE herbicidal damage score", "setting": "[9]", "result": 5}, {"measurement": "ECHCG herbicidal damage score", "setting": "[10]", "result": 5}, {"measurement": "ABUTH herbicidal damage score", "setting": "[11]", "result": 5}, {"measurement": "SETFA herbicidal damage score", "setting": "[12]", "result": 4}]}
{"smiles": "COC1=C(C)C(O)N(c2cc(C(F)(F)F)c(C(=O)NC(C)(C)C)cn2)C1=O", "note": "(stereo not drawn) [AI6]", "values": [{"measurement": "ALOMY damage score, application pre-emergence", "setting": "[1]", "result": 4}, {"measurement": "ZEAMX damage score, application pre-emergence", "setting": "[2]", "result": 4}, {"measurement": "AMARE damage score, application pre-emergence", "setting": "[3]", "result": 5}, {"measurement": "ECHCG damage score, application pre-emergence", "setting": "[4]", "result": 5}, {"measurement": "ABUTH damage score, application pre-emergence", "setting": "[5]", "result": 5}, {"measurement": "SETFA damage score, application pre-emergence", "setting": "[6]", "result": 5}, {"measurement": "ALOMY herbicidal damage score", "setting": "[7]", "result": 5}, {"measurement": "ZEAMX herbicidal damage score", "setting": "[8]", "result": 5}, {"measurement": "AMARE herbicidal damage score", "setting": "[9]", "result": 5}, {"measurement": "ECHCG herbicidal damage score", "setting": "[10]", "result": 5}, {"measurement": "ABUTH herbicidal damage score", "setting": "[11]", "result": 5}, {"measurement": "SETFA herbicidal damage score", "setting": "[12]", "result": 5}]}
